Data as given in ChEMBL document CHEMBL3244225, “Synthesis and biological activity of some vinyl-substituted 2-nitroimidazoles” (J Med Chem, 1977).
Values after ≈ are worked out from the molar mass of the structure shown. Active and inactive are the calls of the source. The calls are words filed in the database; no cut-off is given here.

Legend:
[1] = system: Mycobacterium tuberculosis; assay: Antimicrobial activity against Mycobacterium tuberculosis ATCC 9360 by tube dilution method; type: functional
[2] = Toxicity in po dosed mouse infected with Escherichia coli; type: organism-based; conditions: in vivo
Streptococcus pyogenes = assay: Antimicrobial activity against Streptococcus haemolyticus C 203 by tube dilution method; type: functional
Streptococcus pneumoniae = assay: Antimicrobial activity against Diplococcus pneumoniae UC41 by tube dilution method; type: functional
Klebsiella pneumoniae = assay: Antimicrobial activity against Klebsiella pneumoniae I.S.M. by tube dilution method; type: functional
Proteus vulgaris = assay: Antimicrobial activity against Proteus vulgaris X19 H ATCC 881 by tube dilution method; type: functional
Escherichia coli [3] = assay: Antimicrobial activity against Escherichia coli SKF 12140 by tube dilution method; type: functional
Staphylococcus aureus [4] = assay: Antimicrobial activity against Staphylococcus aureus infected in mouse at 200 mg/kg, sc; type: functional, organism-based; design: dose 200 mg/kg
[5] = system: Mycoplasmoides gallisepticum; assay: Antimicrobial activity against Mycoplasma gallisepticum H21 C.Z.B. by tube dilution method; type: functional
Candida albicans = assay: Antimicrobial activity against Candida albicans SKF 2270 by tube dilution method; type: functional
Staphylococcus aureus [6] = assay: Antimicrobial activity against Staphylococcus aureus infected in mouse at 200 mg/kg, po; type: functional, organism-based; design: dose 200 mg/kg
Clostridium perfringens = assay: Antimicrobial activity against Clostridium perfringens ISS 30543 by tube dilution method; type: functional
Shigella sonnei = assay: Antimicrobial activity against Shigella sonnei ATCC 9290 by tube dilution method; type: functional
[7] = system: Trichophyton mentagrophytes; assay: Antimicrobial activity against Trichophyton mentagrophytes SKF 17410 by tube dilution method; type: functional
Pseudomonas aeruginosa = assay: Antimicrobial activity against Pseudomonas aeruginosa ATCC 10145 by tube dilution method; type: functional
Trichomonas vaginalis [8] = assay: Trichomonastatic activity against Trichomonas vaginalis by tube dilution method; type: functional
[9] = Toxicity in sc dosed mouse infected with Escherichia coli; type: organism-based; conditions: in vivo
Staphylococcus aureus [10] = assay: Antimicrobial activity against Staphylococcus aureus Tour by tube dilution method; type: functional
Salmonella typhimurium = assay: Antimicrobial activity against Salmonella typhimurium Kh by tube dilution method; type: functional, Salmonella enterica subsp. enterica serovar Typhimurium; conditions: Salmonella enterica
Trichomonas vaginalis [11] = assay: Trichomonacidal activity against Trichomonas vaginalis by tube dilution method; type: functional
Escherichia coli [12] = assay: Antimicrobial activity against Escherichia coli infected in mouse at 250 mg/kg, po; type: functional, organism-based; design: dose 250 mg/kg
Trichomonas vaginalis [13] = assay: Ratio of metronidazole ED50 to compound ED50 for Trichomonas vaginalis infected in sc dosed mouse; type: functional
[14] = Toxicity in po dosed mouse infected with Trichomonas vaginalis; type: organism-based; conditions: in vivo
Escherichia coli [15] = assay: Antimicrobial activity against Escherichia coli infected in mouse at 250 mg/kg, sc; type: functional, organism-based; design: dose 250 mg/kg
Escherichia coli [16] = assay: Antimicrobial activity against Escherichia coli infected in mouse at 200 mg/kg, sc; type: functional, organism-based; design: dose 200 mg/kg
Escherichia coli [17] = assay: Antimicrobial activity against Escherichia coli infected in mouse at 300 mg/kg, po; type: functional, organism-based; design: dose 300 mg/kg

| Structure (SMILES) | MIC [1] [µg/mL] | LD50 [2] [mg/kg] | MIC (Streptococcus pyogenes) [µg/mL] | MIC (Streptococcus pneumoniae) [µg/mL] | MIC (Klebsiella pneumoniae) [µg/mL] | MIC (Proteus vulgaris) [µg/mL] | MIC (Escherichia coli [3]) [µg/mL] | MIC [5] [µg/mL] | MIC (Candida albicans) [µg/mL] | MIC (Clostridium perfringens) [µg/mL] | MIC (Shigella sonnei) [µg/mL] | MIC [7] [µg/mL] | MIC (Pseudomonas aeruginosa) [µg/mL] | MIC (Trichomonas vaginalis [8]) [µg/mL] | LD50 [9] [mg/kg] | MIC (Staphylococcus aureus [10]) [µg/mL] | MIC (Salmonella typhimurium) [µg/mL] | MIC (Trichomonas vaginalis [11]) [µg/mL] | Ratio ED50 (Trichomonas vaginalis [13]) | LD50 [14] [mg/kg] | also measured |
| --- | --- | --- | --- | --- | --- | --- | --- | --- | --- | --- | --- | --- | --- | --- | --- | --- | --- | --- | --- | --- | --- |
| Cn1c(/C=C/C=[N+](/C)[O-])cnc1[N+](=O)[O-] | 100 (≈ 476 µM) | 700 | 20 (≈ 95.2 µM) | 100 (≈ 476 µM) | 20 (≈ 95.2 µM) | > 100 | 50 (≈ 238 µM) | 10 (≈ 47.6 µM) | > 100 | 5 (≈ 23.8 µM) | 20 (≈ 95.2 µM) | > 100 | > 100 | > 100 | 700 | 10 (≈ 47.6 µM) | 20 (≈ 95.2 µM) | – | – | – | Activity (Staphylococcus aureus [4]): Active; Activity (Staphylococcus aureus [6]): Active |
| CC(/C=C/c1cnc([N+](=O)[O-])n1C)=[N+](\C)[O-] | > 100 | 700 | 100 (≈ 446 µM) | 50 (≈ 223 µM) | 100 (≈ 446 µM) | 100 (≈ 446 µM) | 50 (≈ 223 µM) | 50 (≈ 223 µM) | > 100 | 10 (≈ 44.6 µM) | 100 (≈ 446 µM) | > 100 | > 100 | 50 (≈ 223 µM) | 700 | 50 (≈ 223 µM) | 100 (≈ 446 µM) | 100 (≈ 446 µM) | 2.6 | 700 | Activity (Escherichia coli [12]): inactive; Activity (Escherichia coli [15]): inactive |
| CC(=O)/C=C/c1cnc([N+](=O)[O-])n1C | 20 (≈ 102 µM) | – | 100 (≈ 512 µM) | 100 (≈ 512 µM) | 100 (≈ 512 µM) | 100 (≈ 512 µM) | 20 (≈ 102 µM) | 50 (≈ 256 µM) | > 100 | 5 (≈ 25.6 µM) | 50 (≈ 256 µM) | 100 (≈ 512 µM) | > 100 | 10 (≈ 51.2 µM) | – | 50 (≈ 256 µM) | 50 (≈ 256 µM) | 50 (≈ 256 µM) | 1.1 | 800 | Activity (Escherichia coli [16]): inactive |
| Cn1c(/C=C/C=O)cnc1[N+](=O)[O-] | 50 (≈ 276 µM) | – | 10 (≈ 55.2 µM) | 5 (≈ 27.6 µM) | 10 (≈ 55.2 µM) | 20 (≈ 110 µM) | 5 (≈ 27.6 µM) | 50 (≈ 276 µM) | > 100 | 20 (≈ 110 µM) | 20 (≈ 110 µM) | 10 (≈ 55.2 µM) | 100 (≈ 552 µM) | 20 (≈ 110 µM) | – | 20 (≈ 110 µM) | 5 (≈ 27.6 µM) | 50 (≈ 276 µM) | – | – | Activity (Escherichia coli [17]): inactive |
